Data on 5 compounds can be found in ChEMBL document CHEMBL4619716, “Machine Learning in Mass Spectrometry: A MALDI-TOF MS Approach to Phenotypic Antibacterial Screening” (2020).

The structures appear in SMILES notation. The source made the active and inactive calls. No cut-off for these calls is given here.

One assay has as its system Escherichia coli. Kind of assay: Antimicrobial activity against Escherichia coli ATCC 25922 assessed as induction of changes in mass spectral profile of bacteria 1 times MIC uM by MALDI-TOF MS analysis. The class given is functional, organism-based.
With `CO/N=C(\C(=O)N[C@@H]1C(=O)N2C(C(=O)O)=C(COC(C)=O)CS[C@H]12)c1csc(N)n1`, the outcome was Active. As to `CC1(C)S[C@@H]2[C@H](NC(=O)Cc3ccccc3)C(=O)N2[C@H]1C(=O)O`, the outcome was Active. Take `CN[C@H](CC(C)C)C(=O)N[C@H]1C(=O)N[C@@H](CC(N)=O)C(=O)N[C@H]2C(=O)N[C@H]3C(=O)N[C@H](C(=O)N[C@H](C(=O)O)c4cc(O)cc(O)c4-c4cc3ccc4O)[C@H](O)c3ccc(c(Cl)c3)Oc3cc2cc(c3O[C@@H]2O[C@H](CO)[C@@H](O)[C@H](O)[C@H]2O[C@H]2C[C@](C)(N)[C@H](O)[C@H](C)O2)Oc2ccc(cc2Cl)[C@H]1O`: the outcome was Active. Still for that read-out and setting: for `CO/N=C(\C(=O)N[C@@H]1C(=O)N2C(C(=O)O)=C(COC(N)=O)CS[C@H]12)c1ccco1` the value was “Active”; for `CC1(C)S[C@@H]2[C@H](NC(=O)[C@H](N)c3ccc(O)cc3)C(=O)N2[C@H]1C(=O)O`, “Active”.

The next assay relates to Escherichia coli. Kind of assay: Antimicrobial activity against Escherichia coli ATCC 25922 assessed as induction of changes in mass spectral profile of bacteria by measuring decrease in peak at m/z 6320 and increase in peak at m/z 6405 at 1/16 to 1 times MIC uM by MALDI-TOF MS analysis. The class given is functional, organism-based.
As for `CC1(C)S[C@@H]2[C@H](NC(=O)[C@H](N)c3ccc(O)cc3)C(=O)N2[C@H]1C(=O)O`, the Activity result is “Dose-dependent effect”.
